Laboratory results: US12208110B2 (priority 2020, dated 2025)
Like-named read-outs stand apart in the source and are kept apart here.

Assays:
[1] = test system: RSV-Fluc (Recombinant Respiratory Syncytial virus strain A2 containing the firefly luciferase reporter); assay: microbe, parasite or virus in culture; type: cell-based; conditions: read-out: RSV-Fluc EC50 (nM, NHBE)
[2] = test system: SARS-CoV-2; assay: microbe, parasite or virus in culture; type: cell-based
[3] = test system: MT-4 cells; assay: MT4 cytotoxicity analysis (CellTiter-Glo); type: cell-based
In short: (§1)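 MT-4 cells were exposed in quadruplicate to 3-fold serial compound dilutions (DMSO stocks 2.5 uM to 10 mM) for five days at 37 °C. Viability was read by CellTiter-Glo luminescence.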

[4] = set-up: species or system Sprague-Dawley (SD) rats; conditions: male, Sprague-Dawley, rat, in vivo, po, 10 mg/kg
Method: Example 80: Rat Lung Phosphate (Monophosphate, Diphosphate and Triphosphate) Data with Exemplary Compounds
Measurement of GS-441524 (compound A below) and its phosphorylated metabolites (compounds B, C, and D below) in lung tissues was performed according to the following protocol.
The concentrations of GS-441524 (A) and its phosphorylated metabolites (B, C, and D) were determined in Sprague-Dawley (SD) rats following oral gavage administration of the test compounds. The in-life phase of studies was conducted at Covance Laboratories (Madison, WI). Animals were housed and handled in accordance with the Guide for the Care and Use of Laboratory Animals, Institute of Laboratory Animal Resources. The protocols were reviewed and approved by the Institutional Animal Care and Use Committees (IACUC). Male SD rats weighing approximately 0.3 kg were used for in-life portion of the studies. The animals were fasted overnight prior to the test compound administration and up to 4 hours post-dose. The animals were administered with the test compound at 5, 8, 10 or 20 mg/kg via oral gavage (3 rats per group). The aqueous formulation contains ethanol, dimethyl sulfoxide, Kolliphor HS-15, Labrasol, and propylene glycol. Approximately 0.5 grams of lung tissue samples were collected from each animal and analyzed by LC/MS/MS for determination of the concentrations of GS-441524 and its phosphorylated metabolites. For LC-MS/MS analysis, tissue samples were homogenized and extracted with 4-fold volume of 70% methanol containing 0.1% potassium hydroxide, 67 mM ethylenediamine tetraacetic acid, and internal standard. Approximately 200 μL aliquot of the homogenate was filtered using a 96-well filter plate (0.2 μm polypropylene; Agilent Captiva, Santa Clara, CA). The filtrate was evaporated to dryness and reconstituted with equal volume of 1 mM ammonium phosphate buffer (pH 7). The samples were then analyzed on a Sciex 6500+ LC-MS/MS instrument (Redwood City, CA). Analytes were eluted on a […] 50×2.0 mm Phenomenex Luna C18 HST column (Torrance, CA) using mobile phases containing 3 mM ammonium formate and 10 mM dimethylhexylamine and a linear gradient from 9% to 50% acetonitrile at a flow rate of 360 μL/min. Data acquisition and processing were accomplished using Sciex Analyst® Software. Total summed levels of GS-441524 phosphorylate metabolites (B+C+D) in lung tissues were generated from the sum of GS-441524 mono-, di- and tri-phosphate (B, C, and D respectively).

[5] = MT4 cytotoxicity analysis (CellTiter-Glo); type: cell-based; conditions: human, MT4 CC50 (nM)
In short: as §1

[6] = human respiratory syncytial virus, NHBE, 72 h
[7] = Severe acute respiratory syndrome coronavirus 2, 48 h
[8] = MT-4 cells, five days, CellTiter-Glo, read-out: MT4 CC50

Compound	EC50 [1, 6]	EC50 [2, 7]	CC50 ([3]; human, 5 days)	EC50 ([1]; NHBE cells, RSV-Fluc MOI 0.1, three days, luciferase readout)	EC50 [2]	Total Lung Phosphate Level (monophosphate + diphosphate + triphosphate, nmol/g) [4]	CC50 at 5 days [5]	CC50 [3, 8]
CCCCCCCCCCCCCCCCCCOC[C@@H](OCc1ccccc1)C(C)OP(=O)(O)OC[C@H]1O[C@@](C#N)(c2ccc3c(N)ncnn23)[C@H](O)[C@@H]1O (single isomer, unassigned) [Example 12]	240 nM	8.4 µM	10 µM					
CCCCCCCCCCCCCCCCCCOC[C@@H](OCc1ccccc1)C(C)OP(=O)(O)OC[C@H]1O[C@@](C#N)(c2ccc3c(N)ncnn23)[C@H](O)[C@@H]1O (single isomer, unassigned) [Example 13]			29 µM	240 nM	9.5 µM			
CCCCCCCCCCCCCCCCCCOC[C@H](COP(=O)(O)OC[C@H]1O[C@@](C#N)(c2ccc3c(N)ncnn23)[C@H](O)[C@@H]1O)N(C)Cc1ccc(F)c(Cl)c1 [Example 3, ((2R,3S,4R,5R)-5-(4-aminopyrrolo[2,1-f][1,2,4]triazin-7-yl)-5-cyano-3,4-dihydroxytetrahydrofuran-2-yl)methyl ((R)-2-((3-chloro-4-fluorobenzyl)(methyl)amino)-3-(octadecyloxy)propyl) hydrogen phosphate]	350 nM	2.3 µM				0.6 nmol/g	5700 nM	
CCCCCCCCCCCCCCCCCCOC[C@H](COP(=O)(O)OC[C@H]1O[C@@](C#N)(c2ccc3c(N)ncnn23)[C@H](O)[C@@H]1O)N(C)Cc1cc(F)cc(C#N)c1 [Example 6, ((2R,3S,4R,5R)-5-(4-aminopyrrolo[2,1-f][1,2,4]triazin-7-yl)-5-cyano-3,4-dihydroxytetrahydrofuran-2-yl)methyl ((R)-2-((3-cyano-5-fluorobenzyl)(methyl)amino)-3-(octadecyloxy)propyl) hydrogen phosphate]	570 nM	10 µM	50 µM					
CCCCCCCCCCCCCCCCCCOC[C@H](COP(=O)(O)OC[C@H]1O[C@@](C#N)(c2ccc3c(N)ncnn23)[C@H](O)[C@@H]1O)OC(=O)c1ccccc1 [Example 17, (2R)-1-(((((2R,3S,4R,5R)-5-(4-aminopyrrolo[2,1-f][1,2,4]triazin-7-yl)-5-cyano-3,4-dihydroxytetrahydrofuran-2-yl)methoxy)(hydroxy)phosphoryl)oxy)-3-(octadecyloxy)propan-2-yl benzoate]	120 nM	0.89 µM	50 µM					
CCCCCCCCCOCCCOP(=O)(O)OC[C@H]1O[C@@](C#N)(c2ccc3c(N)ncnn23)[C@H](O)[C@@H]1O [Example 25, ((2R,3S,4R,5R)-5-(4-Aminopyrrolo[2,1-f][1,2,4]triazin-7-yl)-5-cyano-3,4-dihydroxytetrahydrofuran-2-yl)methyl (3-(nonyloxy)propyl) hydrogen phosphate]	5000 nM	10 µM						50 µM
CCCCCCCCOCCOP(=O)(O)OC[C@H]1O[C@@](C#N)(c2ccc3c(N)ncnn23)[C@H](O)[C@@H]1O [Example 26, ((2R,3S,4R,5R)-5-(4-Aminopyrrolo[2,1-f][1,2,4]triazin-7-yl)-5-cyano-3,4-dihydroxytetrahydrofuran-2-yl)methyl (2-(octyloxy)ethyl) hydrogen phosphate]	5000 nM	10 µM						50 µM
CCCCCCCCCCCOCCOP(=O)(O)OC[C@H]1O[C@@](C#N)(c2ccc3c(N)ncnn23)[C@H](O)[C@@H]1O [Example 27, ((2R,3S,4R,5R)-5-(4-Aminopyrrolo[2,1-f][1,2,4]triazin-7-yl)-5-cyano-3,4-dihydroxytetrahydrofuran-2-yl)methyl (2-(undecyloxy)ethyl) hydrogen phosphate]	5000 nM	10 µM						50 µM
CCCCCCCCCCCCCCCCCCOC[C@H](COP(=O)(O)OC[C@H]1O[C@@](C#N)(c2ccc3c(N)ncnn23)[C@H](O)[C@@H]1O)NC(=O)c1ccccc1 [Example 30, ((2R,3S,4R,5R)-5-(4-aminopyrrolo[2,1-f][1,2,4]triazin-7-yl)-5-cyano-3,4-dihydroxytetrahydrofuran-2-yl)methyl ((R)-2-benzamido-3-(octadecyloxy)propyl) hydrogen phosphate]	130 nM	8.3 µM	50 µM					
CCCCCCCCCCCCCCCCCCOC[C@H](COP(=O)(O)OC[C@H]1O[C@@](C#N)(c2ccc3c(N)ncnn23)[C@H](O)[C@@H]1O)OCc1cc(OC)c(C#N)c(OC)c1 [Example 55, ((2R,3S,4R,5R)-5-(4-aminopyrrolo[2,1-f][1,2,4]triazin-7-yl)-5-cyano-3,4-dihydroxytetrahydrofuran-2-yl)methyl ((R)-2-((4-cyano-3,5-dimethoxybenzyl)oxy)-3-(octadecyloxy)propyl) hydrogen phosphate]	24 nM					2.1 nmol/g	270 nM	
CCCCCCCCCCCCCCCCCCOC[C@H](COP(=O)(O)OC[C@H]1O[C@@](C#N)(c2ccc3c(N)ncnn23)[C@H](O)[C@@H]1O)NC(=O)c1cccc(C#N)c1 [Example 57, ((2R,3S,4R,5R)-5-(4-aminopyrrolo[2,1-f][1,2,4]triazin-7-yl)-5-cyano-3,4-dihydroxytetrahydrofuran-2-yl)methyl ((R)-2-(3-cyanobenzamido)-3-(octadecyloxy)propyl) hydrogen phosphate]	330 nM	4.9 µM	50 µM					
CCCCCCCCCCCCSCCCOP(=O)(O)OC[C@H]1O[C@@](C#N)(c2ccc3c(N)ncnn23)[C@H](O)[C@@H]1O [Example 63, [(2R,3S,4R,5R)-5-(4-Aminopyrrolo[2,1-f][1,2,4]triazin-7-yl)-5-cyano-3,4-dihydroxy-tetrahydrofuran-2-yl]methyl 3-dodecylsulfanylpropyl hydrogen phosphate]	470 nM	10 µM	50 µM					
CCCCCCCCCCCCCCCCCCOC[C@H](CO[P@@](=O)(S)OC[C@H]1O[C@@](C#N)(c2ccc3c(N)ncnn23)[C@H](O)[C@@H]1O)OCc1ccccc1 [Example 67, O-(((2R,3S,4R,5R)-5-(4-aminopyrrolo[2,1-f][1,2,4]triazin-7-yl)-5-cyano-3,4-dihydroxytetrahydrofuran-2-yl)methyl) O—((R)-2-(benzyloxy)-3-(octadecyloxy)propyl) O-hydrogen (R)-phosphorothioate]	190 nM	0.12 µM	26 µM					
CCCCCCCCCCCCCCCCCCOC[C@H](COP(=O)(O)OC[C@H]1O[C@@](C#N)(c2ccc3c(N)ncnn23)[C@H](O)[C@@H]1O)OCc1ccccc1 [Reference Compound, reference compound]						0.5 nmol/g		
